According to publication PMC11012124, “Synthesis of Novel Triazine-Based Chalcones and 8,9-dihydro-7H-pyrimido[4,5-b][1,4]diazepines as Potential Leads in the Search of Anticancer, Antibacterial and Antifungal Agents” (International Journal of Molecular Sciences, 2024):

Legend:
BT-549 = assay: cells; settings: Homo sapiens, BT-549, 48 h; for CC50: read-out: LC50
SF-268 = assay: cells; settings: Homo sapiens, SF-268, 48 h; for CC50: read-out: LC50
SW-620 = assay: cells; settings: Homo sapiens, SW-620, 48 h; for CC50: read-out: LC50
IGROV1 = assay: cells; settings: Homo sapiens, IGROV-1, 48 h; for CC50: read-out: LC50
OVCAR-8 = assay: cells; settings: Homo sapiens, OVCAR-8, 48 h; for CC50: read-out: LC50
HS 578T = assay: cells; settings: Homo sapiens, 48 h; for CC50: read-out: LC50
OVCAR-3 = assay: cells; settings: Homo sapiens, OVCAR-3, 48 h; for CC50: read-out: LC50
NCI/ADR-RES = assay: cells; settings: Homo sapiens, 48 h; for CC50: read-out: LC50
SNB-19 = assay: cells; settings: Homo sapiens, SNB-19, 48 h; for CC50: read-out: LC50
HOP-62 = assay: cells; settings: Homo sapiens, HOP-62, 48 h; for CC50: read-out: LC50
SR = assay: cells; settings: Homo sapiens, 48 h; for CC50: read-out: LC50
[1] = Hemolytic activity, spectrophotometric; type: cell-based, human; settings: human, human red blood cells (huRBC), 5% hematocrit, 200 μg/mL, 37 °C
SK-MEL-28 = assay: cells; settings: Homo sapiens, SK-MEL-28, 48 h; for CC50: read-out: LC50
MDA-MB-435 = assay: cells; settings: Homo sapiens, MDA-MB-435, 48 h; for CC50: read-out: LC50
CCRF-CEM = assay: cells; settings: Homo sapiens, 48 h; for CC50: read-out: LC50
ACHN = assay: cells; settings: Homo sapiens, 48 h; for CC50: read-out: LC50
PC-3 = assay: cells; settings: Homo sapiens, PC-3, 48 h; for CC50: read-out: LC50
HCC-2998 = assay: cells; settings: Homo sapiens, HCC 2998, 48 h; for CC50: read-out: LC50
RXF 393 = assay: cells; settings: Homo sapiens, RXF 393, 48 h; for CC50: read-out: LC50
NCI-H322M = assay: cells; settings: Homo sapiens, 48 h; for CC50: read-out: LC50
K-562 = assay: cells; settings: Homo sapiens, K562, 48 h; for GI50: K-562, 48 h; for CC50: read-out: LC50
CAKI-1 = assay: cells; settings: Homo sapiens, CAKI-1, 48 h; for CC50: read-out: LC50
UACC-62 = assay: cells; settings: Homo sapiens, UACC-62, 48 h
EKVX = assay: cells; settings: Homo sapiens, 48 h; for CC50: read-out: LC50
MALME-3M = assay: cells; settings: Homo sapiens, 48 h; for CC50: read-out: LC50

## COc1cc(/C=C/C(=O)c2cc(OC)c(OC)c(OC)c2)ccc1Oc1nc(NCCO)nc(N2CCOCC2)n1 [20d]
BT-549
  GI50: 1.6 µM
  CC50: 6.88 µM
SF-268
  GI50: 3.02 µM
  CC50: 71.8 µM
SW-620
  GI50: 2.24 µM
  CC50: 26.4 µM
IGROV1
  GI50: 2.45 µM
  CC50: 26.2 µM
OVCAR-8
  GI50: 2.56 µM
  CC50: 34.7 µM
HS 578T
  GI50: 3.62 µM
  CC50: > 100 µM
OVCAR-3
  GI50: 3.2 µM
  CC50: 34.4 µM
NCI/ADR-RES
  GI50: 4.72 µM
  CC50: 95.9 µM
SNB-19
  GI50: 2.31 µM
  CC50: 29.9 µM
HOP-62
  GI50: 2.35 µM
  CC50: 22.4 µM
SR
  GI50: 0.784 µM
  CC50: > 100 µM
[1]
  hemolysis at 24 h, 200 µg/mL: 1.2%
SK-MEL-28
  GI50: 1.92 µM
  CC50: 7.53 µM
MDA-MB-435
  GI50: 3.1 µM
  CC50: 35.1 µM
CCRF-CEM
  GI50: 2.38 µM
  CC50: > 100 µM
ACHN
  GI50: 1.64 µM
  CC50: 7.9 µM
PC-3
  GI50: 3.11 µM
  CC50: 43.2 µM
HCC-2998
  GI50: 2.23 µM
  CC50: 7.97 µM
RXF 393
  GI50: 1.75 µM
  CC50: 6.94 µM
NCI-H322M
  GI50: 2.91 µM
  CC50: 29.3 µM
K-562
  GI50: 1.91 µM
  CC50: > 100 µM
CAKI-1
  GI50: 2.43 µM
  CC50: 30.4 µM
UACC-62
  GI50: 1.69 µM
UACC-62; read-out: LC50
  CC50: 6.03 µM
EKVX
  GI50: 2.81 µM
  CC50: 36.6 µM
MALME-3M
  GI50: 2.67 µM
  CC50: 24.3 µM

## Nc1nc(N)c2c(n1)NC(c1ccc(C(F)(F)F)cc1)CC(c1ccc(Nc3nc(NCCO)nc(Nc4ccc(Cl)cc4)n3)cc1)=N2 (stereo not shown) [33g]
BT-549
  GI50: 1.57 µM
  CC50: 6.34 µM
SF-268
  GI50: 1.66 µM
  CC50: 7.27 µM
SW-620
  GI50: 1.6 µM
  CC50: 7.04 µM
IGROV1
  GI50: 1.37 µM
OVCAR-8
  GI50: 1.5 µM
  CC50: 5.75 µM
HS 578T
  GI50: 2.55 µM
  CC50: > 100 µM
OVCAR-3
  GI50: 1.32 µM
  CC50: 6.57 µM
NCI/ADR-RES
  GI50: 1.95 µM
SNB-19
  GI50: 1.51 µM
  CC50: 5.76 µM
HOP-62
  GI50: 1.63 µM
  CC50: 6.14 µM
SR
  GI50: 1.46 µM
  CC50: > 100 µM
[1]
  hemolysis at 24 h, 200 µg/mL: 22%
SK-MEL-28
  GI50: 1.53 µM
  CC50: 5.37 µM
MDA-MB-435
  GI50: 1.4 µM
  CC50: 5.3 µM
CCRF-CEM
  GI50: 1.23 µM
  CC50: > 100 µM
ACHN
  GI50: 1.5 µM
  CC50: 5.31 µM
PC-3
  GI50: 1.54 µM
HCC-2998
  GI50: 1.31 µM
  CC50: 5.25 µM
RXF 393
  GI50: 1.14 µM
  CC50: 5.48 µM
NCI-H322M
  GI50: 1.66 µM
  CC50: 5.63 µM
K-562
  GI50: 0.642 µM
  CC50: > 100 µM
CAKI-1
  GI50: 1.45 µM
  CC50: 5.61 µM
UACC-62
  GI50: 1.68 µM
EKVX
  GI50: 1.52 µM
  CC50: 5.75 µM
MALME-3M
  GI50: 1.74 µM

## COc1cc(/C=C/C(=O)c2ccc(C)cc2)ccc1Oc1nc(NCCO)nc(N2CCOCC2)n1 [20b]
BT-549
  GI50: 1.62 µM
SF-268
  GI50: 2.9 µM
  CC50: > 100 µM
SW-620
  GI50: 1.64 µM
  CC50: > 100 µM
IGROV1
  GI50: 3.1 µM
  CC50: > 100 µM
OVCAR-8
  GI50: 1.76 µM
HS 578T
  GI50: 4.6 µM
  CC50: > 100 µM
OVCAR-3
  GI50: 2.49 µM
  CC50: > 100 µM
NCI/ADR-RES
  GI50: 2.08 µM
  CC50: > 100 µM
SNB-19
  GI50: 2.45 µM
  CC50: > 100 µM
HOP-62
  GI50: 16.6 µM
  CC50: > 100 µM
SR
  GI50: 1.06 µM
  CC50: > 100 µM
[1]
  hemolysis at 24 h, 200 µg/mL: 3.3%
SK-MEL-28
  GI50: 2.5 µM
  CC50: > 100 µM
MDA-MB-435
  GI50: 3.31 µM
  CC50: > 100 µM
CCRF-CEM
  GI50: 2.71 µM
  CC50: > 100 µM
ACHN
  GI50: 1.94 µM
PC-3
  GI50: 2.53 µM
  CC50: > 100 µM
HCC-2998
  GI50: 2.08 µM
RXF 393
  GI50: 2.07 µM
NCI-H322M
  GI50: 6.24 µM
  CC50: > 100 µM
K-562
  GI50: 1.53 µM
  CC50: > 100 µM
CAKI-1
  GI50: 5.02 µM
  CC50: > 100 µM
UACC-62
  GI50: 2.01 µM
EKVX
  GI50: 3.9 µM
  CC50: > 100 µM
MALME-3M
  GI50: 2.29 µM
  CC50: > 100 µM
